The source of these data is patent US20250146011A1, “HERBICIDE-RESISTANT CAMELINA SATIVA PLANTS, AND VARIANT CAMELINA ACETOHYDROXYACID SYNTHASE POLYPEPTIDES” (Smart Earth Camelina Corp., priority 2019, published 2025).

Assay [1] concerns 13CS0786. The assay can be described thus: Greenhouse dose-response to thifensulfuron-methyl (height, biomass). The note with it: 21 days after application, rates 0 to 525 g ai/ha, n = 16. The assay is classed as in vivo, Camelina sativa.
Assay [2] deals with 12CS0366. The assay is described as above. The note with it: 21 days after application, rates 0 to 525 g ai/ha, n = 16. The class given is in vivo, Camelina sativa.
In assay [3] the test system is segregating camelina populations. The assay can be described thus: Segregation of resistance to thifensulfuron-methyl in F2, BC1F1 and BC4F2 populations. The assay is classed as in vivo, Camelina sativa. The note with it: 2.5 g ai/ha, 7 d. The source says: From each cross combination, randomly selected F1 plants were selfed for the development of F2 populations segregating for 1 resistance gene.
Further, mutant lines 12CS0365 and 12CS0366 were crossed with each other and a randomly selected F1 plant selfed for the development of an F2 population segregating for 2 independent resistance genes. F4 progeny of F2 plants homozygous for both resistance genes (13CS0786) was backcrossed to 10CS0048 to form a backcross (BC1F1) population. Further backcrossing to the recurrent parent 10CS0048 was conducted until stabilization of the trait in the BC4F3 generation (homozygous for 2 resistance genes).
(§1) At a thifensulfuron-methyl application rate of 2.5 g ai/ha, plants from parental, F2, BC1F1, and BC4F2 populations could easily be scored into one of two discrete phenotypic classes (R, resistant or S, susceptible) 7 d after herbicide application.
Assuming inheritance in a Mendelian manner, the expected genotypic segregation ratio in an F2 population segregating for a single resistance gene would be 1(RR): 2(Rr): 1(rr), or 3(RR, Rr): 1(rr).
If two unlinked genes for resistance are segregating in an F2 population, the expected genotypic segregation ratio would be 9 (R1-R2-): 2 (R1r1r2r2): 2 (r1r1R2r2): 1 (R1R1r2r2): 1 (r1r1R2R2): 1 (r1r1r2r2), or 15 (R1-R2-, R1r1r2r2, r1r1R2r2, R1R1r2r2, r1r1R2R2): 1 (r1r1r2r2). The expected genotypes in the BC1F1 population would be R1r1R2r2, R1r1r2r2, r1r1R2r2, and r1r1r2r2, each produced in equal frequency, resulting in a segregation ratio of 1 (R1r1R2r2): 2 (R1r1r2r2, r1r1R2r2): 1 (r1r1r2r2), or 3 (R1r1R2r2, R1r1r2r2, r1r1R2r2): 1 (r1r1r2r2). The expected segregation ratio in the BC4F2 generation would be the same as that observed in the F2 population.
The F2 population resulting from the reciprocal cross of 10CS0048 with 12CS0365 and 12CS0366, respectively, the F2 population resulting from the cross 12CS0365/12CS0366 and the BC1F1 and BC4F2 populations resulting from the cross of F4 plants homozygous for 2 resistance genes (13CS0786) with recurrent parent 10CS0048, gave good fit to the expected segregation ratios (Table 7).

Assay [4] relates to 13CS0786. The assay is described as follows: Phenotype scoring (R/S) after thifensulfuron-methyl 2.5 g ai/ha. The assay is classed as in vivo, Camelina sativa. The note with it: 7 d after application.
Source text: as §1

Assay [5] has as its system 12CS0365. Described as above. The class given is in vivo, Camelina sativa. The note with it: 7 d after application.
Source text: as §1

Assay [6] concerns 12CS0366. Described as above. The note with it: 7 d after application. The assay is classed as in vivo, Camelina sativa.
Source text: as §1

Assay [7] concerns SRS 934. Described as above. The class given is in vivo, Camelina sativa. The note with it: 7 d after application.
Source text: as §1

The subject of assay [8] is 10CS0048 (MIDAS). The description is as above. The class given is in vivo, Camelina sativa. The note with it: 7 d after application.
Source text: as §1

In assay [9] the test system is 12CS0365. The assay can be described thus: Greenhouse dose-response to thifensulfuron-methyl (height, biomass). The assay is classed as in vivo, Camelina sativa. The note with it: 21 days after application, rates 0 to 525 g ai/ha, n = 16.
Assay [10] has as its system SRS 934. Described as above. The assay is classed as in vivo, Camelina sativa. The note with it: 21 days after application, rates 0 to 525 g ai/ha, n = 16.
Assay [11] concerns AHAS of 14CS0851-01-14. The assay is described as follows: AHAS product feedback inhibition assay. The class given is biochemical, Camelina sativa. The note with it: for Absorbance reading (530 nm), raw data: single reps. Here is the method: (§2) Briefly, for each of the three comparators, leaf and stem (petiole) material was bulk-harvested at the 3-4 leaf stage from at least 30 plantlets, snap-frozen in liquid nitrogen, and stored at −80° C. The AHAS in vitro assay was conducted according to the method of Singh et al (1988), with modifications by Yu (2010) and Rustgi (2014). For each comparator, 4 grams of frozen material were ground to a fine powder with a mortar and pestle in liquid nitrogen and homogenized in 1 volume of cold extraction buffer containing 100 mM potassium phosphate buffer (pH7.5), 10 mM sodium pyruvate, 5 mM MgCl2, 100 μM flavin adenine dinucleotide (FAD), and 10% glycerol. Four 2-mL microcentrifuge tubes were used for each comparator. The homogenate was centrifuged at 13,000 rpm for 10 min at 4° C., supernatant collected and re-centrifuged for an additional 10 minutes under the same conditions. For each tube, 1 mL of supernatant was pipetted into a new 2-mL microcentrifuge tube, and protein was precipitated by the addition of 1 mL of saturated ammonium sulfate. The solution was mixed well by vortex and allowed to stand on ice for 20 minutes, then centrifuged at 13,000 rpm at 4° C. The protein pellet was resuspended in 300 μL of reaction buffer containing 50 mM potassium phosphate buffer (pH7.5), 100 mM sodium pyruvate, 10 mM MgCl2, 1 mM EDTA, 10 μM FAD, 100 mM NaCl, and 1 mM thiamine pyrophosphate. Tubes of each comparator were combined, mixed well, kept on ice and immediately used in the AHAS activity and feedback inhibition assays.
(§3) Total protein concentration of the crude extract was determined by the Bradford method (Bradford, 1976). All assays were conducted using 300 μg of total protein each.
(§4) […] (2010). The reaction mixture contained 50 μL enzyme extract and 50 μL 100 mM sodium pyruvate and inhibitor amino acid. The reaction was incubated at 37° C. for 60 minutes, then stopped and acetolactate converted to acetoin with the addition of 20 μL of 6 N H2SO4 and incubated at 60° C. for 15 minutes. A separate background “blank” was included for each sample group by adding 20 μL of 6 N H2SO4 prior to the addition of the enzyme extracts. Then, 95 μL of 0.55% w/v creatine solution and 95 μL of α-naphthol solution (5.5% w/v in 5 N NaOH) were added and the mixture incubated at 60° C. for a further 15 minutes. After cooling to room temperature for 15 minutes, enzyme activity was determined colorimetrically by reading the absorbance at 530 nm. Three independent experiments were conducted. Experiment 1 and 2 each contained 2 technical replicates, while experiment 3 included 3 technical replicates.

Assay [12] has as its system AHAS of MIDAS. The assay is described as follows: AHAS product feedback inhibition assay. The assay is classed as biochemical, Camelina sativa. The note with it: 10 mM amino acid; for Absorbance reading (530 nm), raw data: single reps. Here is the method: as §2, §3, §4
The test system of assay [13] is AHAS of SRS 934. The assay is described as follows: AHAS product feedback inhibition assay. The class given is biochemical, Camelina sativa. The note with it: 10 mM amino acid; for Absorbance reading (530 nm), raw data: single reps. Here is the method: as §2, §3, §4
[14] abbreviates: F2 of 12CS0365 × 10CS0048 (reciprocal).
[15] abbreviates: F2 of 12CS0366 × 10CS0048 (reciprocal).

Structures are written as SMILES. “And” between values parts separate entries of the source, which are not always exact repeats. Equal entries are not always repeated. Marks after values point to notes of the source that are not given here.

Take `COC(=O)c1sccc1S(=O)(=O)NC(=O)Nc1nc(C)nc(OC)n1` [thifensulfuron-methyl]: the ED50 biomass in assay [1] amounted to 89.61 g ai/ha; in assay [2], 8.67 g ai/ha; in assay [9] it was 0.69 g ai/ha; in assay [10], 0.09 g ai/ha. Further, the ED50 height turned out to be 26.36 g ai/ha in assay [1], 5.25 g ai/ha in assay [2], 1.81 g ai/ha in assay [9] and 0.14 g ai/ha in assay [10]. Also, the “Resistant (R), number of plants” value in [3] (BC1F1 of 10CS0048 × 13CS0786) is 27 (27)^; in assay [3] (BC4F2 of 10CS0048 × 13CS0786) it was 147 (147.2); in [3] (setting [14]), 555 (568)^‡; in [3] (F2 of 12CS0365 × 12CS0366), 307 (306.6); in assay [3] (setting [15]), 549 (540)^. Besides, the “Susceptible (S), number of plants” value was 9 (9) in [3] (BC1F1 of 10CS0048 × 13CS0786); 10 (9.8) in assay [3] (BC4F2 of 10CS0048 × 13CS0786); 202 (189) in [3] (setting [14]); 20 (20.4) in assay [3] (F2 of 12CS0365 × 12CS0366); 171 (180) in assay [3] (setting [15]). The “phenotype after herbicide application” value is “resistant phenotype” in [4]; “resistant phenotype” in assay [5]; “resistant phenotype” in assay [6]; “either killed or greatly damaged” in assay [7]; “either killed or greatly damaged” in [8].
Take `CC(C)[C@H](N)C(=O)O` [valine]: the “sensitivity of AHAS to feedback inhibition, comparison of enzyme extracts” value in [11] (14CS0851-01-14 vs SRS 934 and MIDAS, 1 mM, 10 mM, 100 mM amino acid) is “no significant difference”. Besides, the “Absorbance reading (530 nm), AVG of reps” value is listed as 0.178 in assay [11] (Experiment 2, 10 mM amino acid); 0.073 in assay [11] (Experiment 3, 10 mM amino acid); 0.214 in [12] (Experiment 1); 0.191 in assay [12] (Experiment 2); 0.112 in [12] (Experiment 3); 0.184 in assay [13] (Experiment 1). Also, the results for the “Absorbance reading (530 nm), AVG of reps” value in assay [13] (Experiment 2) and in assay [13] (Experiment 3) were 0.179 and 0.093, respectively. Besides, the “Absorbance reading (530 nm), raw data” value in assay [11] (Experiment 2, 10 mM amino acid) was 0.190; in [11] (Experiment 2, 100 mM amino acid), 0.333; in assay [11] (Experiment 3, 10 mM amino acid) it was 0.057 and 0.084; in [12] (Experiment 1) it was 0.205 and 0.223; in assay [12] (Experiment 2), 0.217; in [12] (Experiment 2, listed as Valine) it was 0.165. Besides, the “Absorbance reading (530 nm), raw data” value in [12] (Experiment 3) was 0.133 and 0.110 and 0.112; in [13] (Experiment 1), 0.186 and 0.182; in [13] (Experiment 2, listed as Valine), 0.206 and 0.151; in [13] (Experiment 3), 0.091.
